Patent US20250215039A1, “NUCLEOSIDES FOR TREATING CANCER” (PRIMEFOUR THERAPEUTICS, INC., priority 2022, published 2025)
Like-named read-outs stand apart in the source and are kept apart here.

Test system: cancer cell lines
Assay: Cancer cell proliferation activity (CellTiterGlo, 72 h)
Type: cell-based
Conditions: 72 h, 72 h, read-out: IC50
Outline: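 Readout is CellTiterGlo luminescence after 72 h compound exposure (0.1% DMSO final), started one day post-seeding, at 37 °C.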

Q: What does the source list for `CC[C@]1(CO)O[C@@H](n2cnc3c(N)nc(F)nc32)[C@H](O)[C@@H]1O` [Cpd. No. 173, (2R,3S,4R,5R)-5-(6-amino-2-fluoro-9H-purin-9-yl)-2-ethyl-2-(hydroxymethyl)tetrahydrofuran-3,4-diol]?
A: IC50 (5637 cell line (bladder)): 220 nM; IC50 (AS49 cell line (lung)): 240 nM; IC50 (CLS439 cell line (bladder)): 610 nM; IC50 (HS729 cell line (muscle)): 210 nM; IC50 (JAR cell line (placenta)): 50 nM; IC50 (Homo sapiens, 22Rv1, 72 h, 22RV1 cell line (prostate)): 220 nM; IC50 (Homo sapiens, 786-0, 72 h, 786O cell line (kidney)): 110 nM; IC50 (Homo sapiens, A204, 72 h, A204 cell line (muscle)): 70 nM; IC50 (Homo sapiens, A673, 72 h, A673 cell line (bone)): 570 nM; IC50 (Homo sapiens, A2780, 72 h, A2780 cell line (ovary)): 200 nM; IC50 (Homo sapiens, A-375, 72 h, A375 cell line (skin)): 140 nM; IC50 (Homo sapiens, A-431, 72 h, A431 cell line (skin)): 70 nM; IC50 (Homo sapiens, ACHN, ACHN cell line (kidney)): 280 nM; IC50 (Homo sapiens, ASPC1, 72 h, ASPC1 cell line (pancreas)): 50 nM; IC50 (Homo sapiens, BT-20, 72 h, BT20 cell line (breast)): 100 nM; IC50 (Homo sapiens, BXPC-3, 72 h, BXPC3 cell line (pancreas)): 210 nM; IC50 (Homo sapiens, C-33-A, C33A cell line (cervical)): 190 nM; IC50 (Homo sapiens, CAKI-1, 72 h, CAKI1 cell line (kidney)): 10 nM; IC50 (Homo sapiens, COLO 205, 72 h, COLO205 cell line (colon)): 260 nM; IC50 (Homo sapiens, COLO-678, 72 h, COLO678 cell line (colon)): 390 nM; IC50 (Homo sapiens, Ca-Ski, CASKI cell line (cervical)): 60 nM; IC50 (Homo sapiens, Caco-2, 72 h, CACO2 cell line (colon)): 280 nM; IC50 (Homo sapiens, Calu-6, 72 h, CALU6 cell line (lung)): 60 nM; IC50 (Homo sapiens, DLD-1, 72 h, DLD1 cell line (colon)): 260 nM; IC50 (Homo sapiens, DU-145, 72 h, DU145 cell line (prostate)): 20 nM; IC50 (Homo sapiens, EFO-21, 72 h, EFO21 cell line (ovary)): 130 nM; IC50 (Homo sapiens, EJ-28, 72 h, EJ28 cell line (bladder)): 90 nM; IC50 (Homo sapiens, Granta-519, 72 h, GRANTA-519 cell line (hematological)): 560 nM; IC50 (Homo sapiens, HCT-15, 72 h, HCT15 cell line (colon)): 300 nM; IC50 (Homo sapiens, HCT-116, 72 h, HCT116 cell line (colon)): 230 nM; IC50 (Homo sapiens, HEK293, 72 h, HEK293 cell line (kidney)): 140 nM; IC50 (Homo sapiens, HL-60, 72 h, HL-60 cell line (hematological)): 70 nM; IC50 (Homo sapiens, HT-29, 72 h, HT29 cell line (colon)): 160 nM; IC50 (Homo sapiens, HT-1080, 72 h, HT1080 cell line (connective tissue)): 720 nM; IC50 (Homo sapiens, HeLa, HELA cell line (cervical)): 110 nM; IC50 (Homo sapiens, HepG2, 72 h, HEPG2 cell line (liver)): 110 nM; IC50 (Homo sapiens, Hs-578T, HS578T cell line, breast): 90 nM; IC50 (Homo sapiens, IGROV-1, 72 h, IGROV1 cell line (ovary)): 50 nM; IC50 (Homo sapiens, IMR-90, 72 h, IMR90 cell line, lung): 150 nM; IC50 (Homo sapiens, J82, 72 h, J82 cell line (bladder)): 150 nM; IC50 (Homo sapiens, JEG-3, 72 h, JEG3 cell line (placenta)): 40 nM; IC50 (Homo sapiens, JIMT-1, 72 h, JIMT1 cell line (breast)): 20 nM; IC50 (Homo sapiens, K562, 72 h, K-562 cell line (hematological)): 500 nM; IC50 (Homo sapiens, Kasumi 1, 72 h, KASUMI-1 cell line (hematological)): 20 nM; IC50 (Homo sapiens, L-363, 72 h, L-363 cell line (hematological)): 40 nM; IC50 (Homo sapiens, LoVo, LOVO cell line (colon)): 40 nM; IC50 (Homo sapiens, MCF7, 72 h, MCF7 cell line (breast)): 2400 nM; IC50 (Homo sapiens, MDA-MB-231, 72 h, MDAMB231 cell line (breast)): 570 nM; IC50 (Homo sapiens, MDA-MB-435, 72 h, MDAMB435 cell line (skin)): 250 nM; IC50 (Homo sapiens, MDA-MB-436, 72 h, MDAMB436 cell line (breast)): 70 nM; IC50 (Homo sapiens, MDA-MB-468, 72 h, MDAMB468 cell line (breast)): 100 nM; IC50 (Homo sapiens, MG-63, 72 h, MG63 cell line (bone)): 2360 nM; IC50 (Homo sapiens, MHH-ES-1, 72 h, MHHES1 cell line (bone)): 120 nM; IC50 (Homo sapiens, MIA PaCa-2, 72 h, MIAPACA2 cell line (pancreas)): 2770 nM; IC50 (Homo sapiens, MINO, MINO cell line (hematological)): 30 nM; IC50 (Homo sapiens, MV4-11, 72 h, MV4-11 cell line (hematological)): 30 nM; IC50 (Homo sapiens, NCI-H23, 72 h, NCI-H23 cell line (lung)): 70 nM; IC50 (Homo sapiens, NCI-H82, 72 h, NCIH82 cell line (lung)): 70 nM; IC50 (Homo sapiens, NCI-H292, 72 h, NCIH292 cell line (lung)): 470 nM; IC50 (Homo sapiens, NCI-H460, 72 h, NCIH460 cell line (lung)): 150 nM; IC50 (Homo sapiens, OVCAR-3, 72 h, OVCAR3 cell line (ovary)): 80 nM; IC50 (Homo sapiens, OVCAR-4, 72 h, OVCAR4 cell line (ovary)): 130 nM; IC50 (Homo sapiens, PANC-1, 72 h, PANC1 cell line (pancreas)): 2820 nM; IC50 (Homo sapiens, PC-3, 72 h, PC3 cell line (prostate)): 130 nM; IC50 (Homo sapiens, PLC-PRF-5, 72 h, PLCPRF5 cell line (liver)): 630 nM; IC50 (Homo sapiens, Panc1005, 72 h, PANC1005 cell line (pancreas)): 130 nM; IC50 (Homo sapiens, RD, RD cell line (muscle)): 190 nM; IC50 (Homo sapiens, Ramos, RAMOS cell line (hematological)): 80 nM; IC50 (Homo sapiens, SAOS-2, 72 h, SAOS2 cell line (bone)): 100 nM; IC50 (Homo sapiens, SF-268, 72 h, SF268 cell line (brain)): 670 nM; IC50 (Homo sapiens, SF-295, 72 h, SF295 cell line (brain)): 440 nM; IC50 (Homo sapiens, SK-BR-3, 72 h, SKBR3 cell line (breast)): 10 nM; IC50 (Homo sapiens, SK-HEP1, 72 h, SKHEP1 cell line (liver)): 190 nM; IC50 (Homo sapiens, SK-LMS-1, 72 h, SKLMS1 cell line (uterus)): 90 nM; IC50 (Homo sapiens, SK-MEL-5, 72 h, SKMEL5 cell line, skin): 420 nM; IC50 (Homo sapiens, SK-MEL-28, 72 h, SKMEL28 cell line (skin)): 150 nM; IC50 (Homo sapiens, SK-N-AS, SKNAS cell line (brain)): 160 nM; IC50 (Homo sapiens, SK-N-SH, SKNSH cell line (brain)): 140 nM; IC50 (Homo sapiens, SK-OV-3, 72 h, SKOV3 cell line (ovary)): 100 nM; IC50 (Homo sapiens, SNB-75, 72 h, SNB75 cell line (brain)): 240 nM; IC50 (Homo sapiens, SU-DHL10, 72 h, SU-DHL-10 cell line (hematological)): 200 nM; IC50 (Homo sapiens, SU-DHL-6, 72 h, SU-DHL-6 cell line (hematological)): 50 nM; IC50 (Homo sapiens, SW-620, 72 h, SW620 cell line (colon)): 90 nM; IC50 (Homo sapiens, T-24, 72 h, T24 cell line (bladder)): 140 nM; IC50 (Homo sapiens, TE-671, 72 h, TE671 cell line (muscle)): 620 nM; IC50 (Homo sapiens, THP-1, 72 h, THP-1 cell line (hematological)): 980 nM; IC50 (Homo sapiens, U2OS, U2OS cell line (bone)): 80 nM; IC50 (Homo sapiens, U-87 MG, U87MG cell line (brain)): 380 nM; IC50 (Homo sapiens, UMUC3, 72 h, UMUC3 cell line (bladder)): 460 nM; IC50 (Homo sapiens, UO-31, 72 h, UO31 cell line (kidney)): 50 nM; IC50 (Homo sapiens, WSU-NHL, WSU-NHL cell line (hematological)): 40 nM; IC50 (MT-3, 72 h, MT3 cell line (breast)): 100 nM; IC50 (NCI-H358M, NCIH358M cell line (lung)): 150 nM; IC50 (PBMC, PBMC (hematological)): > 50000 nM; IC50 (RD-ES, RDES cell line (bone)): 60 nM
